Results: patent US5294617A, “Angiotensin II receptor blocking 2,3,6 substituted quinazolinones” (American Cyanamid Company, priority 1993, dated 1994)
Several values for one entry are separate records, joined by “and”; a condition that tells them apart may be missing. Identical values can stand only once.

Tested on: ANGIOTENSIN II (AII) VASOPRESSOR RESPONSE
Test: AII Challenge: angiotensin II vasopressor response in conscious spontaneously hypertensive rats
Assay type: in vivo, Conscious Male Okamoto-Aoki SHR (rat)
Conditions: for % Inhibition / Average Change: SHR n=2; for Response After AII / Response Change: individual rat, SHR
From the text: By administering a compound of this invention to a rat, and then challenging with angiotensin II, a blockage of the vasopressor response is realized.
Conscious Male Okamoto-Aoki SHR, 16-20 weeks old, weighing approximately 330 g are purchased from Charles River Labs (Wilmington, Mass.). Conscious rats are restrained in a supine position with elastic tape. The area at the base of the tail is locally anesthetized by subcutaneous infiltration with 2% procaine. The ventral caudal artery and vein are isolated, and a cannula made of polyethylene (PE) 10-20 tubing (fused together by heat) is passed into the lower abdominal aorta and vena cava, respectively. The cannula is secured, heparinized (1,000 I.U./ml), sealed and the wound is closed. The animals are placed in plastic restraining cages in an upright position. The cannula is attached to a Statham P23Db pressure transducer, and pulsatile blood pressure is recorded to 10-15 minutes with a Gould Brush recorder. (Chan et al., (Drug Development Res., 18:75-94, 1989).
Angiotensin II (human sequence, Sigma Chem. Co., St. Louis, Mo.) of 0.05 and 0.1 ug/kg i.v. is injected into all rats (predosing response). Then a test compound, vehicle or a known angiotensin II antagonist is administered i.v., i.p. or orally to each set of rats. The two doses of angiotensin II are given to each rat again at 30, 60, 90, 120, 180, 240 and 300 minutes post dosing the compound or vehicle. The vasopressor response of angiotensin II is measured for the increase in systolic blood pressure in mmHg. The percentage of antagonism or blockade of the vasopressor response of angiotensin II by a compound is calculated using the vasopressor response (increase in systolic blood pressure) of angiotensin II of each rat predosing the compound as 100%. A compound is considered active if at 30 mg/kg i.v. it antagonized at least 50% of the response.

[1] = 2 mg/kg i.v., AII 0.05 mcg/kg IV, 30 min post dose
[2] = 2 mg/kg i.v., AII 0.05 mcg/kg IV, 60 min post dose
[3] = 2 mg/kg i.v., AII 0.05 mcg/kg IV, 90 min post dose
[4] = 2 mg/kg i.v., AII 0.05 mcg/kg IV, 120 min post dose
[5] = 2 mg/kg i.v., AII 0.05 mcg/kg IV, 180 min post dose
[6] = 2 mg/kg i.v., AII 0.1 mcg/kg IV, 30 min post dose
[7] = 2 mg/kg i.v., AII 0.1 mcg/kg IV, 60 min post dose
[8] = 2 mg/kg i.v., AII 0.1 mcg/kg IV, 90 min post dose
[9] = 2 mg/kg i.v., AII 0.1 mcg/kg IV, 120 min post dose
[10] = 2 mg/kg i.v., AII 0.1 mcg/kg IV, 180 min post dose
[11] = 10 mg/kg i.v., AII 0.05 mcg/kg IV, 30 min post dose
[12] = 10 mg/kg i.v., AII 0.05 mcg/kg IV, 60 min post dose
[13] = 10 mg/kg i.v., AII 0.05 mcg/kg IV, 90 min post dose
[14] = 10 mg/kg i.v., AII 0.05 mcg/kg IV, 120 min post dose
[15] = 10 mg/kg i.v., AII 0.05 mcg/kg IV, 180 min post dose
[16] = 10 mg/kg i.v., AII 0.05 mcg/kg IV, 240 min post dose
[17] = 10 mg/kg i.v., AII 0.05 mcg/kg IV, 300 min post dose
[18] = 10 mg/kg i.v., AII 0.1 mcg/kg IV, 30 min post dose
[19] = 10 mg/kg i.v., AII 0.1 mcg/kg IV, 60 min post dose
[20] = 10 mg/kg i.v., AII 0.1 mcg/kg IV, 90 min post dose
[21] = 10 mg/kg i.v., AII 0.1 mcg/kg IV, 120 min post dose
[22] = 10 mg/kg i.v., AII 0.1 mcg/kg IV, 180 min post dose
[23] = 10 mg/kg i.v., AII 0.1 mcg/kg IV, 240 min post dose
[24] = 10 mg/kg i.v., AII 0.1 mcg/kg IV, 300 min post dose
[25] = 2 mg/kg i.v., AII 0.05 mcg/kg IV, 30 min post dose, 2 mg/kg
[26] = 2 mg/kg i.v., AII 0.05 mcg/kg IV, 60 min post dose, 2 mg/kg
[27] = 2 mg/kg i.v., AII 0.05 mcg/kg IV, 90 min post dose, 2 mg/kg
[28] = 2 mg/kg i.v., AII 0.05 mcg/kg IV, 180 min post dose, 2 mg/kg
[29] = 2 mg/kg i.v., AII 0.1 mcg/kg IV, 30 min post dose, 2 mg/kg
[30] = 2 mg/kg i.v., AII 0.1 mcg/kg IV, 60 min post dose, 2 mg/kg

CCCCc1nc2ccc([C@@H]3C[C@H](CO)ON3C)cc2c(=O)n1Cc1ccc(-c2ccccc2-c2nn[nH]n2)cc1 (relative stereo) [Example 15, CIS-2-butyl-6-5-(hydroxymethyl)-2-methyl-3-isoxazolidinyl]-3-[[2'-(1H-tetrazol-5[1,1'-biphenyl]-4-yl]methyl]-4(3H)-quinazolinone]
% Inhibition [1]: 43%
Average Change [1]: 26 mmHg
% Inhibition [2]: 67%
Average Change [2]: 15 mmHg
% Inhibition [3]: 67%
Average Change [3]: 15 mmHg
% Inhibition [4]: 67%
Average Change [4]: 15 mmHg
% Inhibition [5]: 43%
Average Change [5]: 26 mmHg
% Inhibition [6]: 38%
Average Change [6]: 30 mmHg
% Inhibition [7]: 45%
Average Change [7]: 26.5 mmHg
% Inhibition [8]: 48%
Average Change [8]: 25 mmHg
% Inhibition [9]: 62%
Average Change [9]: 18.5 mmHg
% Inhibition [10]: 54%
Average Change [10]: 22.5 mmHg
% Inhibition [11]: 78%
Average Change [11]: 10 mmHg
% Inhibition [12]: 99%
Average Change [12]: 0.5 mmHg
% Inhibition [13]: 89%
Average Change [13]: 5 mmHg
% Inhibition [14]: 72%
Average Change [14]: 12.5 mmHg
% Inhibition [15]: 56%
Average Change [15]: 20 mmHg
% Inhibition [16]: 67%
Average Change [16]: 15 mmHg
% Inhibition [17]: 70%
Average Change [17]: 13.5 mmHg
% Inhibition [18]: 100%
Average Change [18]: 0 mmHg
% Inhibition [19]: 80%
Average Change [19]: 9 mmHg
% Inhibition [20]: 72%
Average Change [20]: 12.5 mmHg
% Inhibition [21]: 72%
Average Change [21]: 12.5 mmHg
% Inhibition [22]: 52%
Average Change [22]: 21.5 mmHg
% Inhibition [23]: 52%
Average Change [23]: 21.5 mmHg
% Inhibition [24]: 28%
Average Change [24]: 32,5 mmHg
Response After AII [25]: 237 mmHg and 255 mmHg
Response Change [25]: 22 mmHg and 30 mmHg
Response After AII [2]: 245 mmHg
Response After AII [26]: 225 mmHg
Response Change [26]: 25 mmHg and 5 mmHg
Response After AII [27]: 230 mmHg and 235 mmHg
Response Change [27]: 20 mmHg and 10 mmHg
Response Change [4]: 15 mmHg
Response After AII (2 mg/kg i.v., AII 0.05 mcg/kg IV, 120 min post dose, 2 mg/kg): 220 mmHg and 230 mmHg
Response After AII [28]: 220 mmHg and 250 mmHg
Response Change [28]: 17 mmHg and 35 mmHg
Response After AII [29]: 245 mmHg and 250 mmHg
Response Change [29]: 25 mmHg and 35 mmHg
Response After AII [30]: 255 mmHg and 235 mmHg
Response Change [30]: 35 mmHg and 18 mmHg
